Test results reported in the supplement of paper PMC10307832.

Legend:
Test in all cases: relative viability (nuclei count vs DMSO), 5 days (fraction); higher = more cells survive
Carboplatin + Bortezomib = compound: C1CC(C1)(C(=O)O)C(=O)O.[NH2-].[NH2-].[Pt+2] [Carboplatin] + CC(C)C[C@H](NC(=O)[C@H](Cc1ccccc1)NC(=O)c1cnccn1)B(O)O [Bortezomib] (partner 0.002 µM)
Method in brief: (§1)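 Relative viability is defined as nuclei in treated wells over nuclei in vehicle wells. Duplicate plates were run and medians reported. Lung cancer cell lines in 1536-well plates were dosed by pin tool one day after seeding, with one drug or with a fixed anchor-drug dose plus five library-drug doses (not always all listed) in √10 steps, and nuclei were counted after 5 days.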

Carboplatin + Luminespib = compound: C1CC(C1)(C(=O)O)C(=O)O.[NH2-].[NH2-].[Pt+2] [Carboplatin] + CCNC(=O)c1noc(-c2cc(C(C)C)c(O)cc2O)c1-c1ccc(CN2CCOCC2)cc1 [Luminespib] (partner 0.01 µM)
Method in brief: as §1

Carboplatin + Pictilisib = compound: C1CC(C1)(C(=O)O)C(=O)O.[NH2-].[NH2-].[Pt+2] [Carboplatin] + CS(=O)(=O)N1CCN(Cc2cc3nc(-c4cccc5[nH]ncc45)nc(N4CCOCC4)c3s2)CC1 [Pictilisib] (partner 1 µM)
Method in brief: as §1

MLN4924 + Trametinib = compound: NS(=O)(=O)OC[C@@H]1C[C@@H](n2ccc3c(N[C@H]4CCc5ccccc54)ncnc32)C[C@@H]1O [MLN4924] + CC(=O)Nc1cccc(-n2c(=O)n(C3CC3)c(=O)c3c(Nc4ccc(I)cc4F)n(C)c(=O)c(C)c32)c1 [Trametinib] (partner 0.02 µM)
Method in brief: as §1

Cell Line | relative viability (Carboplatin + Bortezomib; first compound 0.08 µM) | relative viability (Carboplatin + Bortezomib; first compound 0.253 µM) | relative viability (Carboplatin + Bortezomib; first compound 0.8 µM) | relative viability (Carboplatin + Bortezomib; first compound 2.53 µM) | relative viability (Carboplatin + Bortezomib; first compound 8 µM) | relative viability (Carboplatin + Luminespib; first compound 0.08 µM) | relative viability (Carboplatin + Luminespib; first compound 0.253 µM) | relative viability (Carboplatin + Luminespib; first compound 0.8 µM) | relative viability (Carboplatin + Luminespib; first compound 2.53 µM) | relative viability (Carboplatin + Luminespib; first compound 8 µM) | relative viability (Carboplatin + Pictilisib; first compound 0.08 µM) | relative viability (Carboplatin + Pictilisib; first compound 0.253 µM) | relative viability (Carboplatin + Pictilisib; first compound 0.8 µM) | relative viability (Carboplatin + Pictilisib; first compound 2.53 µM) | relative viability (Carboplatin + Pictilisib; first compound 8 µM) | relative viability (MLN4924 + Trametinib; first compound 0.04 µM) | relative viability (MLN4924 + Trametinib; first compound 0.1265 µM) | relative viability (MLN4924 + Trametinib; first compound 0.4 µM) | relative viability (MLN4924 + Trametinib; first compound 1.265 µM) | relative viability (MLN4924 + Trametinib; first compound 4 µM)
HARA | 1.06 | 1.13 | 1.09 | 1.01 | 0.939 | 0.847 | 0.756 | 0.701 | 0.573 | 0.752 | 0.424 | 0.341 | 0.387 | 0.382 | 0.391 | 0.671 | 0.79 | 0.357 | 0.114 | 0.111
NCI-H1915 | 0.984 | 1.01 | 0.954 | 0.845 | 0.487 | 0.867 | 0.876 | 0.631 | 0.613 | 0.328 | 0.938 | 0.929 | 0.919 | 0.85 | 0.588 | 0.346 | 0.39 | 0.403 | 0.261 | 0.167
NCI-H1650 | 0.221 | 0.195 | 0.193 | 0.198 | 0.178 | 0.212 | 0.217 | 0.189 | 0.215 | 0.196 | 0.741 | 0.651 | 0.563 | 0.519 | 0.416 | 0.597 | 0.32 | 0.232 | 0.131 | 0.156
NCI-H650 | 0.966 | 0.852 | 0.868 | 0.764 | 0.388 | 0.757 | 0.904 | 0.655 | 0.548 | 0.327 | 0.948 | 1.03 | 0.826 | 0.791 | 0.562 | 0.894 | 0.76 | 0.574 | 0.201 | 0.176
NCI-H2126 | 1.14 | 1.14 | 1.15 | 1.15 | 1.04 | 0.862 | 1.07 | 0.992 | 0.931 | 0.695 | 0.47 | 0.516 | 0.518 | 0.511 | 0.452 | 0.576 | 0.563 | 0.484 | 0.329 | 0.243
NCI-H838 | 1.06 | 0.858 | 0.869 | 0.835 | 0.82 | 0.284 | 0.291 | 0.195 | 0.192 | 0.188 | 0.476 | 0.391 | 0.469 | 0.454 | 0.485 | 0.438 | 0.331 | 0.172 | 0.0938 | 0.126
EPLC-272H | 0.86 | 1.1 | 0.972 | 1.01 | 0.877 | 0.308 | 0.297 | 0.266 | 0.387 | 0.226 | 0.373 | 0.305 | 0.313 | 0.322 | 0.349 | 0.339 | 0.333 | 0.0863 | 0.147 | 0.126
NCI-H1437 | 0.526 | 0.486 | 0.598 | 0.453 | 0.425 | 1.14 | 1.14 | 0.994 | 1.03 | 0.97 | 0.433 | 0.401 | 0.414 | 0.381 | 0.413 | 0.547 | 0.483 | 0.502 | 0.226 | 0.218
NCI-H2405 | 1.03 | 1 | 0.994 | 0.912 | 0.89 | 0.813 | 0.838 | 0.591 | 0.606 | 0.724 | 0.588 | 0.405 | 0.472 | 0.45 | 0.428 | 0.882 | 0.893 | 0.621 | 0.292 | 0.254
NCI-H1666 | 0.842 | 0.776 | 0.789 | 0.774 | 0.724 | 1.02 | 1.02 | 0.814 | 0.824 | 0.702 | 0.527 | 0.561 | 0.404 | 0.403 | 0.389 | 0.762 | 0.601 | 0.615 | 0.429 | 0.51
NCI-H1993 | 1.14 | 1.16 | 0.915 | 0.928 | 0.908 | 1.13 | 0.812 | 0.818 | 0.884 | 0.698 | 0.805 | 0.891 | 0.745 | 0.869 | 0.811 | 0.63 | 0.425 | 0.388 | 0.415 | 0.356
LU99A | 1.01 | 1.23 | 1.04 | 0.968 | 0.757 | 0.29 | 0.319 | 0.247 | 0.188 | 0.211 | 0.3 | 0.379 | 0.323 | 0.328 | 0.307 | 0.493 | 0.342 | 0.291 | 0.172 | 0.146
NCI-H520 | 0.611 | 0.609 | 0.767 | 0.599 | 0.523 | 0.256 | 0.209 | 0.183 | 0.21 | 0.211 | 0.357 | 0.227 | 0.27 | 0.297 | 0.258 | 0.527 | 0.396 | 0.346 | 0.149 | 0.168
NCI-H661 | 0.915 | 0.856 | 0.716 | 0.613 | 0.763 | 0.892 | 0.901 | 0.854 | 0.874 | 0.744 | 0.431 | 0.393 | 0.368 | 0.34 | 0.402 | 0.714 | 0.712 | 0.475 | 0.277 | 0.353
NCI-H1975 | 0.345 | 0.462 | 0.462 | 0.419 | 0.307 | 0.227 | 0.227 | 0.17 | 0.18 | 0.113 | 0.324 | 0.305 | 0.306 | 0.315 | 0.302 | 0.344 | 0.544 | 0.44 | 0.38 | 0.312
NCI-H1355 | 1.35 | 1.33 | 1.18 | 1.23 | 1.04 | 0.826 | 0.814 | 0.765 | 0.588 | 0.537 | 0.394 | 0.537 | 0.461 | 0.431 | 0.454 | 0.474 | 0.477 | 0.444 | 0.243 | 0.232
